Assay results: patent US6479435B1, “Diaryl ethers and processes for their preparation and herbicidal and desiccant compositions containing them” (ISK Americas Incorporated, priority 1997, dated 2002)

Key:
Format in all cases: in vivo
[1] = system: Johnsongrass (Sorghum halepense, SORHA); experiment: Pre-emerge greenhouse herbicide test, phytotoxicity rating; conditions: Sorghum halepense, pre-emergence, 336 h, 14 days after application, rating scale 0-100; for pest or weed control at 125 g/ha: Rate 125 g al/ha; for pest or weed control at 500 g/ha: Rate 500 g al/ha
In short: (§1)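 Seeds sown in sandy loam one day before track-sprayer application of acetone solutions at 125–1000 g ai/ha (187 l/ha), then surface-watered to incorporate and bottom-watered. Injury scored visually at 14 days on a 0–100 scale (0 no damage, 100 complete death).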

[2] = system: green foxtail (Setaria viridis, SETVI); experiment: as above; conditions: Setaria viridis, pre-emergence, 336 h, 14 days after application, rating scale 0-100; for pest or weed control at 125 g/ha: Rate 125 g al/ha; for pest or weed control at 500 g/ha: Rate 500 g al/ha
In short: as §1

[3] = system: ivyleaf morningglory (Ipomoea hederacea, IPOHE); experiment: as above; conditions: Ipomoea, pre-emergence, 336 h, 14 days after application, rating scale 0-100; for pest or weed control at 125 g/ha: Rate 125 g al/ha; for pest or weed control at 500 g/ha: Rate 500 g al/ha
In short: as §1

[4] = system: lambsquarters (Chenopodium album, CHEAL); experiment: as above; conditions: Chenopodium album, pre-emergence, 336 h, 14 days after application, rating scale 0-100; for pest or weed control at 125 g/ha: Rate 125 g al/ha; for pest or weed control at 500 g/ha: Rate 500 g al/ha
In short: as §1

[5] = system: sicklepod (Cassia obtusifolia, CASOB); experiment: as above; conditions: Senna obtusifolia, pre-emergence, 336 h, 14 days after application, rating scale 0-100; for pest or weed control at 125 g/ha: Rate 125 g al/ha; for pest or weed control at 500 g/ha: Rate 500 g al/ha
In short: as §1

[6] = system: velvetleaf (Abutilon theophrasti, ABUTH); experiment: as above; conditions: Abutilon theophrasti, pre-emergence, 336 h, 14 days after application, rating scale 0-100; for pest or weed control at 125 g/ha: Rate 125 g al/ha; for pest or weed control at 500 g/ha: Rate 500 g al/ha
In short: as §1

[7] = system: Johnsongrass (Sorghum halepense, SORHA); experiment: Post-emerge greenhouse herbicide test, phytotoxicity rating; conditions: Sorghum halepense, post-emergence, 336 h, 14 days after application, scale 0-100; for pest or weed control at 63 g/ha: rate 63 g ai/ha; for pest or weed control at 500 g/ha: rate 500 g ai/ha
In short: (§2)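 Plants at the 2-3 leaf stage, sown 8-21 days earlier, were track-sprayed post-emergence with compound in acetone plus 0.25% v/v non-ionic surfactant at 63-1000 g ai/ha (187 l/ha). Damage was rated at 14 days on a 0-100 scale (0 none, 100 all plants dead), for both crop injury and weed control.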

[8] = system: barnyardgrass (Echinochloa crusgalli, ECHCG); experiment: as above; conditions: Echinochloa crus-galli, post-emergence, 336 h, 14 days after application, scale 0-100; for pest or weed control at 63 g/ha: rate 63 g ai/ha; for pest or weed control at 500 g/ha: rate 500 g ai/ha
In short: as §2

[9] = system: green foxtail (Setaria viridis, SETVI); experiment: as above; conditions: Setaria viridis, post-emergence, 336 h, 14 days after application, scale 0-100; for pest or weed control at 63 g/ha: rate 63 g ai/ha; for pest or weed control at 500 g/ha: rate 500 g ai/ha
In short: as §2

[10] = system: ivyleaf morningglory (Ipomoea hederacea, IPOHE); experiment: as above; conditions: Ipomoea, post-emergence, 336 h, 14 days after application, scale 0-100; for pest or weed control at 63 g/ha: rate 63 g ai/ha; for pest or weed control at 500 g/ha: rate 500 g ai/ha
In short: as §2

[11] = system: lambsquarters (Chenopodium album, CHEAL); experiment: as above; conditions: Chenopodium album, post-emergence, 336 h, 14 days after application, scale 0-100; for pest or weed control at 63 g/ha: rate 63 g ai/ha; for pest or weed control at 500 g/ha: rate 500 g ai/ha
In short: as §2

[12] = system: large crabgrass (Digitaria sanguinalis, DIGSA); experiment: as above; conditions: Digitaria sanguinalis, post-emergence, 336 h, 14 days after application, scale 0-100; for pest or weed control at 63 g/ha: rate 63 g ai/ha; for pest or weed control at 500 g/ha: rate 500 g ai/ha
In short: as §2

[13] = system: redroot pigweed (Amaranthus retroflexus, AMARE); experiment: as above; conditions: Amaranthus retroflexus, post-emergence, 336 h, 14 days after application, scale 0-100; for pest or weed control at 63 g/ha: rate 63 g ai/ha; for pest or weed control at 500 g/ha: rate 500 g ai/ha
In short: as §2

[14] = system: sicklepod (Cassia obtusifolia, CASOB); experiment: as above; conditions: Senna obtusifolia, post-emergence, 336 h, 14 days after application, scale 0-100; for pest or weed control at 63 g/ha: rate 63 g ai/ha; for pest or weed control at 500 g/ha: rate 500 g ai/ha
In short: as §2

[15] = system: velvetleaf (Abutilon theophrasti, ABUTH); experiment: as above; conditions: Abutilon theophrasti, post-emergence, 336 h, 14 days after application, scale 0-100; for pest or weed control at 63 g/ha: rate 63 g ai/ha; for pest or weed control at 500 g/ha: rate 500 g ai/ha
In short: as §2

SMILES | pest or weed control at 125 g/ha [1] | pest or weed control at 500 g/ha [1] | pest or weed control at 125 g/ha [2] | pest or weed control at 500 g/ha [2] | pest or weed control at 125 g/ha [3] | pest or weed control at 500 g/ha [3] | pest or weed control at 125 g/ha [4] | pest or weed control at 500 g/ha [4] | pest or weed control at 125 g/ha [5] | pest or weed control at 500 g/ha [5] | pest or weed control at 125 g/ha [6] | pest or weed control at 500 g/ha [6] | pest or weed control at 63 g/ha [7] | pest or weed control at 500 g/ha [7] | pest or weed control at 63 g/ha [8] | pest or weed control at 500 g/ha [8] | pest or weed control at 63 g/ha [9] | pest or weed control at 500 g/ha [9] | pest or weed control at 63 g/ha [10] | pest or weed control at 500 g/ha [10] | further results
Nn1c(C(F)(F)F)cc(=O)n(-c2cc(Oc3ccc(Br)cn3)c(Cl)cc2F)c1=O [Compound 9-2, 1-Amino-3-[4-chloro-2-fluoro-5-(5-bromo-2-pyridyloxy)phenyl]-6-trifluoromethyl-1,2,3,4-tetrahydropyrimidine-2,4-dione] | 60% | 90% | 80% | 100% | 0% | 100% | 100% | 100% | 0% | 50% | 30% | 100% | 10% | 70% | 10% | 80% | 10% | 60% | 100% | 80% | pest or weed control at 63 g/ha [11]: 100%; pest or weed control at 500 g/ha [11]: 95%; pest or weed control at 63 g/ha [12]: 0%; pest or weed control at 500 g/ha [12]: 30%; pest or weed control at 63 g/ha [13]: 100%; pest or weed control at 500 g/ha [13]: 100%; pest or weed control at 63 g/ha [14]: 30%; pest or weed control at 500 g/ha [14]: 95%; pest or weed control at 63 g/ha [15]: 100%; pest or weed control at 500 g/ha [15]: 100%
N#Cc1cccnc1Oc1cc(-n2c(=O)cc(C(F)(F)F)n(N)c2=O)c(F)cc1Cl [Compound 9-9, 1-Amino-3-[4-chloro-2-fluoro-5-(3-cyano-2-pyridyloxy)phenyl]-6-trifluoromethyl-1,2,3,4-tetrahydropyrimidine-2,4-dione] | 100% | 100% | 100% | 100% | 100% | 100% | 100% | 100% | 100% | 100% | 100% | 100% | 40% | 100% | 10% | 100% | 20% | 90% | 90% | 100% | pest or weed control at 63 g/ha [11]: 90%; pest or weed control at 500 g/ha [11]: 100%; pest or weed control at 63 g/ha [12]: 10%; pest or weed control at 500 g/ha [12]: 90%; pest or weed control at 63 g/ha [13]: 100%; pest or weed control at 500 g/ha [13]: 100%; pest or weed control at 63 g/ha [14]: 90%; pest or weed control at 500 g/ha [14]: 100%; pest or weed control at 63 g/ha [15]: 100%; pest or weed control at 500 g/ha [15]: 100%
O=c1n(-c2cc(Oc3ncccn3)c(Cl)cc2F)c(=S)n2n1CCCC2 [Compound 8-29, 2-[4-chloro-2-fluoro-5-(2-pyrimidyloxy)phenyl]hexahydro-3-thioxo-1H-[1,2,4]triazolo[1,2-a]pyridazin-1-one] | 100% | 100% | 100% | 100% | 100% | 100% | 100% | 100% | 100% | 100% | 100% | 100% | 90% | 100% | 80% | 100% | 90% | 100% | 100% | 100% | pest or weed control at 63 g/ha [11]: 100%; pest or weed control at 500 g/ha [11]: 100%; pest or weed control at 63 g/ha [12]: 50%; pest or weed control at 500 g/ha [12]: 100%; pest or weed control at 63 g/ha [13]: 100%; pest or weed control at 500 g/ha [13]: 100%; pest or weed control at 63 g/ha [14]: 100%; pest or weed control at 500 g/ha [14]: 100%; pest or weed control at 63 g/ha [15]: 100%; pest or weed control at 500 g/ha [15]: 100%
Nn1c(C(F)(F)F)cc(=O)n(-c2cc(Oc3cccc(Cl)n3)c(Cl)cc2F)c1=O [Compound 9-5, 1-Amino-3-[4-chloro-2-fluoro-5-(6-chloro-2-pyridyloxy)phenyl]-6-trifluoromethyl-1,2,3,4-tetrahydropyrimidine-2,4-dione] | 95% | 100% | 100% | 100% | 70% | 50% | 100% | 100% | 10% | 50% | 100% | 100% | 50% | 100% | 20% | 100% | 30% | 90% | 100% | 90% | pest or weed control at 63 g/ha [11]: 90%; pest or weed control at 500 g/ha [11]: 100%; pest or weed control at 63 g/ha [12]: 0%; pest or weed control at 500 g/ha [12]: 80%; pest or weed control at 63 g/ha [13]: 100%; pest or weed control at 500 g/ha [13]: 100%; pest or weed control at 63 g/ha [14]: 100%; pest or weed control at 500 g/ha [14]: 100%; pest or weed control at 63 g/ha [15]: 90%; pest or weed control at 500 g/ha [15]: 100%
